# Results taken from US11953435B2, “Zinc-responsive fluorophores” (Northwestern University, priority 2019, dated 2024).
# Entries after “also recorded” stand apart in the source; their conditions may differ. Read-outs that look alike come from different tables or passages of the source.
# Tests used:
# MII egg [1] = assay: Confocal imaging of zinc in live MII eggs; type: cell-based, mouse
# Excerpt: [formula] [formula] [formula] where r(t) is the anisotropy, P(t) is the polarization, Ivv and Ivh are intensities with polarization in the vertical plane and the excitation in the vertical and horizontal planes respectively, Ihv and Ihh are intensities with polarization in the horizontal plane and the excitation in the vertical and horizontal planes respectively, and G is a g-factor that corrects for instrument sensitivity in the horizontal and vertical planes. Metal content of NMR samples. Inductively coupled plasma mass spectrometry (ICP-MS) was performed on a Thermo iCAP Q ICP-MS. 1 mg/mL of ZincBY-1 or ZincBY-4 in acetonitrile-d3 or acetonitrile-d3 only was evaporated overnight at 70° C. 150 μL of HNO3 was added and the samples were digested overnight at 70° C. Samples were diluted to a final nitric acid concentration of 3%. ICP-MS was operated in collision cell mode to reduce polyatomic interferences. An internal standard comprising ^7Li, ^89Y, and ^115In was used. Each sample was acquired using one survey run (10 sweeps) and three main (peak jumping) runs (100 sweeps). Data was fit to a standard curve using a standard containing ^45Sc, […], ^51V, ^52Cr, ^55Mn, ^56Fe, ^59Co, ^58Ni, ^63Cu, and ^64Zn from 5 ppb to 1000 ppb. Only ^56Fe and ^64Zn were detected in the samples above background levels. Computational Analysis of ZincBY-1 and ZincBY-4. All density functional theory (DFT) calculations were performed using version 4.0.1 of the ORCA electronic structure package (Ref. B6; incorporated by reference in its entirety). Guided by the results of earlier studies on BODIPY derivatives (Ref. B7; incorporated by reference in its entirety), the PBE0 functional (Refs. B8-B10; incorporated by reference in their entireties) was used to optimize the geometries of all molecules studied, while time dependent DFT (TD-DFT) calculations and charge analysis through the CHarges from ELectrostatic Potentials using a Grid-based method (CHELPG) (Ref. B11; incorporated by reference in its entirety) were performed with the oB97-XD3 functional (Ref. B12; incorporated by reference in its entirety). All calculations utilized the def2-TZVP basis set (Ref B13; incorporated by reference in its entirety) with the resolution of the identity approximation coupled with the chain of spheres exchange method (RIJCOSX) (Refs. B14-B16; incorporated by reference in their entireties), using the def2/J auxiliary basis (Ref B17; incorporated by reference in its entirety). Implicit solvation effects were included through the conductor like polarizable continuum model (CPCM) (Ref B18; incorporated by reference in its entirety). Calculated spectra were broadened by Gaussians of width 0.2 eV, and red shifted by 0.64 eV to better match the experimental spectra per Momeni and Brown (Ref. B7; incorporated by reference in its entirety). Animals and Egg Collection Mouse. To collect MII-arrested eggs, female mice of at least 5 weeks in age were injected with 5 IU pregnant mare serum gonadotropin (PMSG) followed by 5 IU human chorionic gonadotropin (hCG) 48 hours later. Intact cumulus-oocyte complexes (COCs) were isolated from the oviducts 15 hours after the administration of hCG. Cumulus cells were denuded using 0.3% (w/v) hyaluronidase. Animals were treated in accordance with the US National Institutes of Health Guide for the Care and Use of Laboratory Animals. Food and water were given ad libitum. The Northwestern University Institutional Animal Care and Use Committee approved all the protocols. C. Elegans. Wildtype strain Bristol N2 was used as a control strain in fluorescence microscopy experiments. EU1067: unc-119(ed3) ruIs32[unc-119(+) pie-1^promoter::GFP::H2B] III; ruIs57[unc-119(+) pie-P1^promoter:GFP::tubulin] was used as a marker for cortical granules in fluorescence microscopy experiments. EU1067 was provided by the Caenorhabditis Genetics Center (CGC). […]
# [2] = cited from earlier work; for Brightness (ε*Φ/1000) / Extinction Coefficient (ε) / Quantum Yield (Φ) / λAbs (max) / λEm (max): values reported in Que et al.
# MII egg [3] = conditions: previously reported; cited from earlier work
# [4] = previously reported value; read-out: zinc dissociation constant (reported); cited from earlier work
# C. elegans = assay: Confocal imaging of zinc in C. elegans worms; type: in vivo
# Excerpt: [formula] [formula] where r(t) is the anisotropy, P(t) is the polarization, Ivv and Ivh are intensities with polarization in the vertical plane and the excitation in the vertical and horizontal planes respectively, Ihv and Ihh are intensities with polarization in the horizontal plane and the excitation in the vertical and horizontal planes respectively, and G is a g-factor that corrects for instrument sensitivity in the horizontal and vertical planes. Metal content of NMR samples. Inductively coupled plasma mass spectrometry (ICP-MS) was performed on a Thermo iCAP Q ICP-MS. 1 mg/mL of ZincBY-1 or ZincBY-4 in acetonitrile-d3 or acetonitrile-d3 only was evaporated overnight at 70° C. 150 μL of HNO3 was added and the samples were digested overnight at 70° C. Samples were diluted to a final nitric acid concentration of 3%. […] Only ^56Fe and ^64Zn were detected in the samples above background levels. […] Calculated spectra were broadened by Gaussians of width 0.2 eV, and red shifted by 0.64 eV to better match the experimental spectra per Momeni and Brown (Ref. B7; incorporated by reference in its entirety). […] Wildtype strain Bristol N2 was used as a control strain in fluorescence microscopy experiments. […] III; ruIs57[unc-119(+) pie-P1^promoter:GFP::tubulin] was used as a marker for cortical granules in fluorescence microscopy experiments. […]
compound,measurement,setting,value
"COc1ccc2n1[B-](F)(F)[N+]1=C(N(CCN(Cc3ccccn3)Cc3ccccn3)Cc3ccccn3)C=CC1=C2c1c(C)cc(C)cc1C [ZincBY-1, reference compound]",excitation at 488 nm in the MII egg,MII egg [1]; 50 nM probe,Only ZincBY-4 was readily excited at 488 nm
same,excitation at 552 nm in the MII egg,MII egg [1]; 50 nM probe,both probes were excitable at 552 nm
same,Brightness (ε*Φ/1000),[2]; Apo,0.57(6) M^−1cm^−1
same,Extinction Coefficient (ε),[2]; Apo,1.1(0.05) × 10^4 M^−1cm^−1
same,Quantum Yield (Φ),[2]; Apo,0.052(3)
same,λAbs (max),[2]; Apo,533 nm
same,λEm (max),[2]; Apo,560 nm
same,Brightness (ε*Φ/1000),[2]; Zn-bound,2.6(5) M^−1cm^−1
same,Extinction Coefficient (ε),[2]; Zn-bound,2.0(3) × 10^4 M^−1cm^−1
same,Quantum Yield (Φ),[2]; Zn-bound,0.13(2)
same,λAbs (max),[2]; Zn-bound,533 nm
same,λEm (max),[2]; Zn-bound,543 nm
same,Stokes shift,[2]; literature (Ref. A18),11 nm
same,working concentrations lower than those employed with other probes,MII egg [3],20-200 fold
same,Kd,[4],2.6 nM
"CC(=O)NCCOc1ccc2n1[B-](F)(F)[N+]1=C(N(CCN(Cc3ccccn3)Cc3ccccn3)Cc3ccccn3)C=CC1=C2c1c(C)cc(C)cc1C [ZincBY-4, N-(2-((7-((2-(bis(pyridin-2-ylmethyl)amino)ethyl)(pyridin-2-ylmethyl)amino)-5,5-difluoro-10-mesityl-5H-5λ4,6λ4-dipyrrolo[1,2-c:2′,1′-f][1,3,2]diazaborinin-3-yl)oxy)ethyl)acetamide]",excitation at 488 nm in the MII egg,MII egg [1]; 50 nM probe,only ZincBY-4 exhibits a strong fluorescence intensity upon excitation at 488 nm; also recorded: Only ZincBY-4 was readily excited at 488 nm
same,excitation at 552 nm in the MII egg,MII egg [1]; 50 nM probe,both probes were excitable at 552 nm
same,region of fluorescence emission in MII eggs,"MII egg [1]; 50 nM probe, 488 nm excitation",575-750 nm
same,effect of TPEN on fluorescence in stained MII eggs,MII egg [1]; TPEN 5 μM,loss of fluorescence signal in the vesicle region; also recorded: loss in fluorescence was observed
same,spectral overlap with TubulinTracker Green in the MII egg,MII egg [1]; single excitation at 488 nm,virtually no ZincBY-4 emission detected in the 495-530 nm emission channel; also recorded: virtually no spectral overlap between the two probes
same,fluorescence change on chemical activation (ionomycin) of MII eggs,"MII egg [1]; time lapse imaging, ionomycin 5 μM",increase in fluorescence intensity outside the egg while fluorescence intensity is lost in the periphery region; also recorded: both loss of zinc from the zinc granule region and increase of zinc outside the cell without the need of a second probe was observed
same,usable working concentration,MII egg [1]; where other probes require micromolar amounts,50 nM
same,Stokes shift in cells,MII egg [1]; within cells,~100 nm
same,fluorescence pattern in stained worms,C. elegans; ZincBY-4 stained worms,pattern of increasing fluorescence intensity as oocytes progress through the gonad
same,spectral overlap with GFP in C. elegans,C. elegans; single excitation at 488 nm,small amount of ZincBY-4 emission detected in the 495-530 nm emission channel; also recorded: very little overlap of ZincBY-4 in the GFP detection channel
